Results as given in patent US20020160990A1, “PHYTOSTEROL AND/OR PHYTOSTANOL DERIVATIVES” (priority 1998, published 2002).
Where two headings read alike, the source gives them in different places. Marks after values point to notes of the source that are not given here.

Key:
[1] = Solubility in Swiss rapeseed oil at room temperature by incremental addition of oil; assay type: physicochemical
Description: The minimum starting ratio was about 1:1, and trials were discontinued at above 10:1.

[2] = system: male Fisher rats; assay: Effects of phytosterol esters on plasma total cholesterol in rats on high fat diet; assay type: in vivo, rat; details: for plasma total cholesterol, Week 0 Means ± SD: Week 0 (pretreatment baseline), high fat diet, n=6; for plasma total cholesterol, Week 2 Means ± SD: Week 2 of 2% (wt/wt) lipid in high fat diet; for plasma total cholesterol, % change from pretreatment, Week 2: Week 2 vs week 0; for plasma total cholesterol, Week 4 Means ± SD: Week 4 of 2% (wt/wt) lipid in high fat diet; for plasma total cholesterol, % change from pretreatment, Week 4: Week 4 vs week 0
Description: (§1) Thirty male Fisher rats, weighing 177±14 g, were maintained on a high fat diet (Table 1) during the 2 weeks preceding treatment. They were then randomly divided into five experimental groups consisting of 6 animals each. The control group (Group 1) remained on the high fat diet used during the 2-week pretreatment period. For the other experimental diets, in order to have isocaloric diets and an equal amount of fat in all the experimental diets, 2% (wt/wt) of the fat content of the control diet (1% coconut oil and 1% corn oil) was replaced by 2% (wt/wt) of the following lipids:
(§2) The rats were allowed free access to water and feed, and they were maintained on a 12-hour light-dark cycle. The feed in the cages was replaced daily, all unconsumed material discarded and food intake measured. Blood samples (1 ml) were taken by retroorbital puncture at the start of the experimental period (week 0) and after 2 weeks of treatment (week 2). After 4 weeks, the animals were sacrificed by withdrawing blood from the vena cava under Isoflurane anesthesia. Blood was collected into tubes containing […] as an anticoagulant.
(§3) Plasma was prepared from the heparinized blood by immediate centrifugation at 1600 g for 10 minutes at 4° C. Assays of plasma cholesterol, triglycerides, and HDL-cholesterol (precipitation method) were determined enzymatically on a COBASFARA analyzer (Roche Diagnostica, Switzerland). Non-HDL cholesterol was calculated by difference. The fatty acid composition of the diets was analyzed by gas chromatography.
(§4) All data are expressed as means±SD (standard deviation) for animals in each diet group. The mean differences between dietary groups were analyzed by one-way analysis of covariance (ANCOVA) with subsequent Dunnet's test for multiple comparison against a control group (Group 1 and/or Group 2). The covariate adjusted for was the value of the corresponding parameter at the start of the treatment period (week 0). All tests were performed at the 5%-level and 95%-confidence intervals were calculated.

[3] = system: male Fisher rats; assay: Effects of phytosterol esters on lipoproteins (HDL and non-HDL cholesterol) in rats on high fat diet; assay type: in vivo, rat; details: time point not given; for Non HDL cholesterol Means: calculated by difference; for HDL Cholesterol Means: precipitation method
Description: as §1, §2, §3, §4

[4] = system: male Fisher rats; assay: Effects of phytosterol esters on plasma triglycerides in rats on high fat diet; assay type: in vivo, rat; details: for plasma triglycerides, Week 0 Means ± SD: Week 0 (pretreatment baseline), high fat diet, n=6; for plasma triglycerides, Week 2 Means ± SD: Week 2 of 2% (wt/wt) lipid in high fat diet; for plasma triglycerides, % change from pretreatment, Week 2: Week 2 vs week 0; for plasma triglycerides, Week 4 Means ± SD: Week 4 of 2% (wt/wt) lipid in high fat diet; for plasma triglycerides, % change from pretreatment, Week 4: Week 4 vs week 0
Description: as §1, §2, §3, §4

[5] = Swiss rapeseed oil, room temperature
[6] = Swiss rapeseed oil, room temperature, minimum starting ratio about 1:1, discontinued above 10:1

With Stigmastanol docosahexaenoate the “Solubility (in words)” value [1, 5] was “miscible” and the “Solubility g oil/g material” value [1, 6] was >1 g oil/g material.
In the case of `CCC=CCC=CCC=CCC=CCC=CCC=CCCC(=O)OC1CC[C@@]2(C)C(CC[C@H]3[C@@H]4CC[C@H]([C@H](C)CC[C@@H](CC)C(C)C)[C@@]4(C)CC[C@@H]32)C1` (some centres unmarked) [Group 3, sitostanol-DHA ester], the “plasma total cholesterol, Week 0 Means ± SD” value [2] is reported as 2.90 ± 0.58, the “plasma total cholesterol, Week 2 Means ± SD” value [2] is reported as 1.79 ± 0.37^b and the “plasma total cholesterol, % change from pretreatment, Week 2” value [2] is reported as −38%. The “plasma total cholesterol, Week 4 Means ± SD” value [2] was 1.23 ± 0.26^b, the “plasma total cholesterol, % change from pretreatment, Week 4” value [2] was −58% and the “Non HDL cholesterol Means” value [3] was 0.75 ± 0.21^a. For the same molecule, the “HDL Cholesterol Means” value [3] was 0.49 ± 0.10^b, the “plasma triglycerides, Week 0 Means ± SD” value [4] was 1.25 ± 0.26 and the “plasma triglycerides, Week 2 Means ± SD” value [4] was 0.83 ± 0.13^b. The “plasma triglycerides, % change from pretreatment, Week 2” value [4] was −34%, the “plasma triglycerides, Week 4 Means ± SD” value [4] was 0.74 ± 0.15^b,c and the “plasma triglycerides, % change from pretreatment, Week 4” value [4] was −41%.
In the case of `CC[C@H](/C=C/[C@@H](C)[C@H]1CC[C@H]2[C@@H]3CC=C4C[C@@H](O)CC[C@]4(C)[C@H]3CC[C@]12C)C(C)C` [stigmasterol], the “Solubility (in words)” value [1, 5] is reported as “insoluble” and the “Solubility g oil/g material” value [1, 6] is reported as >10 g oil/g material.
In the case of `CCC=CCC=CCC=CCC=CCC=CCCCC(=O)OC1CCC2(C)C(=CCC3C2CCC2(C)C(C(C)C=CC(CC)C(C)C)CCC32)C1` (centres unmarked) [stigmasterol eicosapentenoate, Stigmasterol eicosapenatenoate], the “Solubility (in words)” value [1, 5] is reported as “miscible” and the “Solubility g oil/g material” value [1, 6] is reported as >1 g oil/g material.
In the case of `CC/C=C\C/C=C\C/C=C\C/C=C\C/C=C\CCCC(=O)O[C@H]1CC[C@@]2(C)C(=CC[C@H]3[C@@H]4CC[C@H]([C@H](C)/C=C/[C@@H](CC)C(C)C)[C@@]4(C)CC[C@@H]32)C1` [Group 4, stigmasterol-EPA ester], the “plasma total cholesterol, Week 0 Means ± SD” value [2] is reported as 2.97 ± 0.49, the “plasma total cholesterol, Week 2 Means ± SD” value [2] is reported as 1.94 ± 0.12^b and the “plasma total cholesterol, % change from pretreatment, Week 2” value [2] is reported as −35%. The “plasma total cholesterol, Week 4 Means ± SD” value [2] was 1.61 ± 0.25^b, the “plasma total cholesterol, % change from pretreatment, Week 4” value [2] was −46% and the “Non HDL cholesterol Means” value [3] was 1.07 ± 0.26^a,b. The “HDL Cholesterol Means” value [3] was 0.53 ± 0.08, the “plasma triglycerides, Week 0 Means ± SD” value [4] was 0.98 ± 0.15 and the “plasma triglycerides, Week 2 Means ± SD” value [4] was 0.81 ± 0.19^b. The “plasma triglycerides, % change from pretreatment, Week 2” value [4] was −17%, the “plasma triglycerides, Week 4 Means ± SD” value [4] was 0.83 ± 0.13^b,c and the “plasma triglycerides, % change from pretreatment, Week 4” value [4] was −15%.
For `CC/C=C\C/C=C\C/C=C\C/C=C\C/C=C\CCCC(=O)OCC` [EPA ethyl ester 90%, EPA ethyl ester], the “Solubility (in words)” value [1, 5] was “miscible” and the “Solubility g oil/g material” value [1, 6] was >1 g oil/g material.
With `CC[C@H](CC[C@@H](C)[C@H]1CC[C@H]2[C@@H]3CC[C@H]4C[C@@H](O)CC[C@]4(C)[C@H]3CC[C@]12C)C(C)C` [stigmastanol] the “Solubility (in words)” value [1, 5] was “insoluble” and the “Solubility g oil/g material” value [1, 6] was >10 g oil/g material.
With `CC/C=C\C/C=C\C/C=C\C/C=C\C/C=C\C/C=C\CCC(=O)O[C@H]1CC[C@@]2(C)C(=CC[C@H]3[C@@H]4CC[C@H]([C@H](C)/C=C/[C@@H](CC)C(C)C)[C@@]4(C)CC[C@@H]32)C1` [stigmasterol docosahexaenoate] the “Solubility (in words)” value [1, 5] was “miscible” and the “Solubility g oil/g material” value [1, 6] was >1 g oil/g material.
In the case of `CC/C=C\C/C=C\C/C=C\C/C=C\C/C=C\C/C=C\CCC(=O)OCC` [docosahexaenoic acid ethyl ester 90%, docosahexaenoic acid ethyl ester], the “Solubility (in words)” value [1] is reported as “miscible” and the “Solubility g oil/g material” value [1] is reported as >1 g oil/g material.
